The values that follow come from BindingDB's records for doi:10.7270/Q2TX3CTT (Broad Institute, 2010).

The target of this assay is Glycogen synthase kinase-3 beta (Homo sapiens, UniProt P49841). The experiment in a line: concentration-response blocking of human GSK3B – biochemical, luminescence, cell-free homogeneous, retest, dose response (AID 434954).
Chain of Glycogen synthase kinase-3 beta (P49841 whole entry): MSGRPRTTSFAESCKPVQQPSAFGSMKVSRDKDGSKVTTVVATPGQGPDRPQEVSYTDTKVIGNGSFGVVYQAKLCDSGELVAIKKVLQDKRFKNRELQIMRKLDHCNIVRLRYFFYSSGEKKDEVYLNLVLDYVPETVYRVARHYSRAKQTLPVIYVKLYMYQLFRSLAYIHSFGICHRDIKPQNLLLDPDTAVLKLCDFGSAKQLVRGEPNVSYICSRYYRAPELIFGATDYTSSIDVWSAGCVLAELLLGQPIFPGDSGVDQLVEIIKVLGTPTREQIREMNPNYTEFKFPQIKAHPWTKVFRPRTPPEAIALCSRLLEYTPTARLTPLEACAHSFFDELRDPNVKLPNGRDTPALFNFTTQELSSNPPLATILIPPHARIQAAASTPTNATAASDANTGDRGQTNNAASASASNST
For the compound `CC(C)n1cnc2c(Nc3cccc(Cl)c3)nc(NCCCO)nc21`, the EC50 (usually the concentration needed to bring the measured effect to its halfway point) was more than 300 µM.

On to `Cc1cccc(NC(=O)CSc2nc(O)c(C#N)c(-c3ccccc3)n2)c1C` [SMR000161905], for which the EC50 was more than 300 µM.

Take `CCOc1ccccc1N1CCN(S(=O)(=O)c2cc(C)ccc2OC)CC1` [MLS000703554]: the EC50 is more than 300 µM.

For `COCCN(CCOC)Cc1c(O)ccc2c1O/C(=C\c1ccco1)C2=O` [SMR000544009], the EC50 was more than 300 µM.

`FC(F)(F)COc1ccc(-n2ccnc2)nn1` [SMR000307161] showed an EC50 of more than 300 µM.

`COCCCNc1nc(N)c([N+](=O)[O-])c(NCC2CCCO2)n1` (stereo not given) had an EC50 of 3.93 µM.

The compound `C/C(C=NNC(=O)c1nnn(-c2nonc2N)c1CN1CCCCC1)=C\c1ccccc1` [1-(4-azanyl-1,2,5-oxadiazol-3-yl)-N-[[(E)-2-methyl-3-phenyl-prop-2-enylidene]amino]-5-(piperidin-1-ylmethyl)-1,2,3-triazole-4-carboxamide] came in with an EC50 of 28.6 µM.

`COc1ccc(CCNc2c(C=O)c(=O)[nH]c3ccccc23)cc1OC` returned an EC50 of more than 300 µM.

`COc1ccc(-c2nnc(NC(=O)C3=COCCO3)o2)cc1` [MLS000722006]: the EC50 was more than 300 µM.

As for `c1ccc(OCCCn2nnc(-c3ccncc3)n2)cc1` [SMR000008082], the midpoint of the response, the EC50, lay at 20.3 µM.

For the compound `CCC(C)Oc1cc(-c2ccnc(Nc3cccc(Cl)c3)n2)ccn1` (stereo not given) [SMR000463563], a half-maximal effect (EC50) was put at 5.38 µM.

`CC1(C)CC(CC(=O)NC(=S)Nc2ccc([N+](=O)[O-])cc2)C(=O)O1` (stereo not given) [2-(5,5-dimethyl-2-oxotetrahydro-3-furanyl)-N-{[(4-nitrophenyl)amino]carbonothioyl}acetamide]: the EC50 worked out at 26.7 µM. Compared with the last compound, the EC50 is about 5-fold higher.

Compound `COc1cccc2c1cc1c(=O)n(CC(=O)NCCCN3CCCCC3)nc(C)n12` [2-(9-methoxy-4-methyl-1-oxo-[1,2,4]triazino[4,5-a]indol-2-yl)-N-[3-(1-piperidinyl)propyl]acetamide] returned an EC50 of more than 300 µM.

Take `O=C(OCCCN1CCCCC1)c1ccc(O)cc1` [3-piperidin-1-ylpropyl 4-hydroxybenzoate]: the EC50 is more than 300 µM.

In turn, `COc1ccc2occ(C(=O)c3ccc(N=C(C)N(C)C)cc3)c2c1` [SMR000104711] had an EC50 of 21.6 µM.

`COCCn1c(SCC(=O)Nc2ccccc2OC)nc2ccccc21` [SMR000377677] came in with an EC50 of more than 300 µM.

On to `CSc1nnc2ccc(-c3cccs3)nn12` [SMR000324231], for which the EC50 is more than 300 µM.

`O=C(O)c1ccc2c3n(nc2c1)-c1ccc(Cl)cc1CO3` [SMR000673552] registered an EC50 of 55.5 µM.

The compound `COc1ccc(Nc2nc3ccccc3s2)cc1` [1,3-benzothiazol-2-yl-(4-methoxyphenyl)amine] had an EC50 of more than 300 µM.

For the compound `CCn1c(SCC(=O)Nc2ccc(F)cc2)nnc1C1CC1` [2-[(5-cyclopropyl-4-ethyl-1,2,4-triazol-3-yl)sulfanyl]-N-(4-fluorophenyl)ethanamide], the EC50 was more than 300 µM.

`O=C(Nc1sccc1C(=O)N1CCOCC1)c1cccnc1` [N-[3-[4-morpholinyl(oxo)methyl]-2-thiophenyl]-3-pyridinecarboxamide] returned an EC50 of 29.2 µM. This lies in the double-digit micromolar range.

On to `COc1ccc(CC(=O)Nc2nc(-c3ccccc3)c(C(C)=O)s2)cc1OC` [2-(3,4-dimethoxyphenyl)-N-(5-ethanoyl-4-phenyl-1,3-thiazol-2-yl)ethanamide], for which the EC50 came out at 7.48 µM.

As for `COc1cccc(C2CC(c3ccc(Cl)cc3)n3nc(N)nc3N2)c1` (stereo not given) [7-(4-chlorophenyl)-5-(3-methoxyphenyl)-1,5,6,7-tetrahydro-[1,2,4]triazolo[1,5-a]pyrimidin-2-amine], the EC50 is more than 300 µM.

With `CN(C)Cc1c(O)ccc2c3c(c(=O)oc12)CCCCC3` [4-Dimethylaminomethyl-3-hydroxy-8,9,10,11-tetrahydro-7H-cyclohepta[c]chromen-6-one], the EC50 was 78.8 µM. This counts as double-digit micromolar.

Regarding `Nc1nonc1-n1nnc(C(=O)NN=Cc2ccccc2F)c1CN1CCOCC1` [1-(4-azanyl-1,2,5-oxadiazol-3-yl)-N-[(2-fluorophenyl)methylideneamino]-5-(morpholin-4-ylmethyl)-1,2,3-triazole-4-carboxamide], the EC50 was determined as 92.1 µM.

Compound `COCCOC(=O)c1c(C)oc2ccc(OC(=O)c3cccs3)cc12` [MLS000111716] gave an EC50 of more than 300 µM.

Consider `CCC(=O)c1c(CC)c2n3c1CC[C@H]3CCC2` [SMR000469597], for which the EC50 was more than 300 µM.

Consider `COc1ccc(NC(=O)c2sc(SC)nc2N)cc1` [SMR000011170], for which the EC50 is more than 300 µM.

Consider `CCOC(=O)C1C(C(F)(F)F)=Nc2ncnn2C1c1cc(OC)ccc1OC` (stereo not given), for which the EC50 is more than 300 µM.

The compound `COc1ccc(-c2nn(-c3ccccc3)cc2N)cc1` [3-(4-methoxyphenyl)-1-phenylpyrazol-4-amine] yielded an EC50 of more than 300 µM.

The compound `CCOc1cccc(C(=O)Nc2cccc(-c3nc4ncccc4o3)c2C)c1` [3-ethoxy-N-[2-methyl-3-([1,3]oxazolo[4,5-b]pyridin-2-yl)phenyl]benzamide] yielded an EC50 of more than 300 µM.

Compound `COc1cccc2cc(C(=O)CS(=O)(=O)c3ccc(Cl)cc3)c(=O)oc12` [3-[2-(4-chlorophenyl)sulfonylethanoyl]-8-methoxy-chromen-2-one] came in with an EC50 of more than 300 µM.

Compound `O=c1cc(-c2ccccc2)c2c(O)cc(O)cc2o1` registered an EC50 of 7.82 µM.

In the case of `Cc1ccc2c(c1)NC(=O)c1cc([N+](=O)[O-])ccc1O2` [8-methyl-2-nitrodibenzo[b,f][1,4]oxazepin-11(10H)-one], the EC50 was more than 300 µM.

With `N#Cc1ccccc1CSc1nnc(Cc2ccccc2)o1` [SMR000297282], the EC50 was more than 300 µM.

With `Cc1nc(Nc2ccccc2)sc1C(=O)Nc1ccccc1`, the EC50 was more than 300 µM.

The compound `CC(C)c1c(C(=O)NN=Cc2ccoc2)nnn1-c1nonc1N` [MLS001139450] showed an EC50 of more than 300 µM.

`CCC(C)Nc1nc(N)c([N+](=O)[O-])c(Nc2ccccc2OC)n1` (stereo not given) [SMR000434817] yielded an EC50 of 0.632 µM.

The compound `Nc1nonc1-n1nnc(C(=O)NN=Cc2ccc(Cl)cc2Cl)c1CN1CCCCC1` [MLS000950038] gave an EC50 of more than 300 µM.

`CC1=C(C#N)C(=O)NC(=O)C1=NNc1ccc(S(N)(=O)=O)cc1` [4-[(2Z)-2-(5-cyano-4-methyl-2,6-dioxopyridin-3-ylidene)hydrazinyl]benzenesulfonamide] displayed an EC50 of 0.917 µM.

Take `CC(C)Cn1nc(NC(=O)C(C)(C)C)c2cc3ccccc3nc21` [MLS000081069]: a half-maximal response (EC50) required 71.4 µM.

On to `COCCn1c(SCC(=O)Nc2ccc(Cl)cn2)nnc1-c1ccncc1` [N-(5-chloranylpyridin-2-yl)-2-[[4-(2-methoxyethyl)-5-pyridin-4-yl-1,2,4-triazol-3-yl]sulfanyl]ethanamide], for which the midpoint of the response, the EC50, lay at 49.2 µM.

In turn, `COc1ccc(/C=C2\Sc3ccc(C(=O)NCCCN4CCCC4)cc3N(C)C2=O)cc1OC` [(2Z)-2-[(3,4-dimethoxyphenyl)methylidene]-4-methyl-3-oxo-N-(3-pyrrolidin-1-ylpropyl)-1,4-benzothiazine-6-carboxamide] yielded an EC50 of more than 300 µM.

`O=C(Nc1ccncc1)Nc1ccccn1` [1-pyridin-2-yl-3-pyridin-4-yl-urea] came in with an EC50 of 4.96 µM.

Take `COc1cccc(C(=O)Nc2nnc(C(C)C)s2)c1` [SMR000013475]: the EC50 is more than 300 µM.
